Test results reported in ChEMBL document CHEMBL1129815, “Ester prodrugs of ampicillin tailored for intracellular accumulation” (Bioorg Med Chem Lett, 1997).
In brackets after ≈: the same amount, converted by molar mass.

Tests used:
[1] = Half-life in 0.02 M phosphate buffer, 0.15 M NaCl, at a pH of 7.4, at 37 degree Celsius was determined; format: ADME; details: pH 7.4
Staphylococcus aureus = test: The minimum inhibition concentration (MIC) against Staphylococcus aureus after hydrolysis 24 hr in phosphate buffer was determined; format: functional

CC1(C)S[C@@H]2[C@H](NC(=O)[C@H](N)c3ccccc3)C(=O)N2[C@H]1C(=O)OCOc1ccccc1
half-life [1]: 3.58 h

CC1(C)S[C@@H]2[C@H](NC(=O)[C@H](N)c3ccccc3)C(=O)N2[C@H]1C(=O)OCN1C(=O)CC(=C2CCCCC2)C1=O [listing 1 of 2 here]
MIC (Staphylococcus aureus): 1.16 µM (≈ 0.627 µg/mL)

CC1(C)S[C@@H]2[C@H](NC(=O)[C@H](N)c3ccccc3)C(=O)N2[C@H]1C(=O)OCN1C(=O)CCC1=O
half-life [1]: 2.5 h

CC1(C)S[C@@H]2[C@H](NC(=O)[C@H](N)c3ccccc3)C(=O)N2[C@H]1C(=O)OCN1C(=O)CC(=C2CCCCC2)C1=O [listing 2 of 2 here]
half-life [1]: 5.13 h

CC1(C)S[C@@H]2[C@H](NC(=O)[C@H](N)c3ccccc3)C(=O)N2[C@H]1C(=O)OCN1C(=O)c2ccccc2C1=O [listing 1 of 2 here]
half-life [1]: 1.08 h

CC(C)(C)C(=O)OCOC(=O)[C@@H]1N2C(=O)[C@@H](NC(=O)C(N)c3ccccc3)[C@H]2SC1(C)C (single isomer, unassigned) [PIVAMPICILLIN]
half-life [1]: 2 h
MIC (Staphylococcus aureus): 0.65 µM (≈ 0.301 µg/mL)

CC1(C)S[C@@H]2[C@H](NC(=O)[C@H](N)c3ccccc3)C(=O)N2[C@H]1C(=O)OCN1C(=O)CCCC1=O
half-life [1]: 3 h

CC1(C)S[C@@H]2[C@H](NC(=O)[C@H](N)c3ccccc3)C(=O)N2[C@H]1C(=O)OCn1c(=O)oc2ccccc21
half-life [1]: 2.5 h

CC1(C)S[C@@H]2[C@H](NC(=O)[C@H](N)c3ccccc3)C(=O)N2[C@H]1C(=O)OCN1C(=O)c2ccccc2S1(=O)=O
half-life [1]: 1.08 h

CC1(C)S[C@@H]2[C@H](NC(=O)[C@H](N)c3ccccc3)C(=O)N2[C@H]1C(=O)OCN1C(=O)c2ccccc2C1=O [listing 2 of 2 here]
MIC (Staphylococcus aureus): 0.53 µM (≈ 0.27 µg/mL)
